Assay results as given in publication PMC3338619, “Ligand Binding Study of Human PEBP1/RKIP: Interaction with Nucleotides and Raf-1 Peptides Evidenced by NMR and Mass Spectrometry” (PLoS ONE, 2012).

Legend:
[1] = molecular target: T1, hPEBP1 (Homo sapiens, UniProt P30086); assay: 15N-1H HSQC NMR titration of ligands with hPEBP1 (KD from CSP fitting); format: binding
T1 construct: all residues except Met1, Val3, Asp35, Gln45, Lys47 and Lys187 (total residues: 187;); made in house; host or cells: E. coli BL21 (DE3), pET31b
T1 sequence (P30086 whole entry): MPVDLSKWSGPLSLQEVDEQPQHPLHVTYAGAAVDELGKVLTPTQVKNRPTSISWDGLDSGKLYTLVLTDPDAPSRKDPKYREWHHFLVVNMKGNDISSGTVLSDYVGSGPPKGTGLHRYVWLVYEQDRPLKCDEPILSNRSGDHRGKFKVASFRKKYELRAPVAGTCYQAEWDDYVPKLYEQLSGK
Description: The interactions between hPEBP1 100–270 µM and the four selected ligands were investigated by ^15N-^1H heteronuclear single quantum coherence (HSQC) NMR experiments with a sensitivity enhancement and gradient selected coherence. ^1H, ^15N HSQC spectra were recorded at 20 or 30°C on a Bruker 500 MHz or a Varian Inova 600 MHz spectrometer. Two experimental sets of conditions were tested: MES 10 mM pH 6.5 at 20°C, and HEPES 10 mM, NaCl 100 mM pH 7.5 at 30°C.
In the simple case of protein-ligand interactions, the free and the bound states are observed during the titration. The interpretation of an NMR spectrum, such as an HSQC, depends on the rate of exchange between the bound and the free forms. Three different cases can be observed. If the complex rate of dissociation is very slow, two separate resonances are observed at the positions corresponding to the chemical shifts characteristic of the two states (free and bound). During the titration, the intensity of the free resonance decreases while the bound resonance one appears and goes up. This regime corresponds to slow chemical exchange on the NMR time scale. If the complex rate of dissociation is very fast, only a single resonance is observed, whose position is the average of the chemical shifts of the two states, weighted by their relative populations. In this case, Chemical Shift Perturbations (CSP) are observed, i.e. the chemical shift evolves as the ligand concentration increases. This regime corresponds to fast exchange on the NMR time scale, and is typical for weaker affinity complexes. In the intermediate chemical exchange case, in addition to CSP, complex changes will affect the line shape that results in the observation of very broad signals with low intensity.
In the fast exchange regime, CSP can be measured from ^15N-HSQC spectra using the equation: [drawing 1] (1) with δ being the chemical shift in ppm.
A threshold value was estimated in order to determine significant CSP. In a first step, all the CSP are considered and the average (<CSP>) plus two times the standard deviation (σ) is calculated. Then, the highest CSP (CSP≥<CSP>+2σ) are removed from the data and new average and new standard deviation calculated. The operation is repeated until the convergence is reached.
Once the residues involved in the binding were selected, the experimental data were fitted with the quadratic equation 2 using SigmaPlot 9.0 in order to obtain the dissociation constant value (KD): [drawing 2] (2) where [P]0 and [L] are the total protein and ligand concentrations, respectively. A KD value was estimated for each residue involved in the binding, and then an average was calculated.

[2] = molecular target: T1, hPEBP1; assay: Native mass spectrometry KD determination (bound protein fraction); format: binding; settings: ammonium bicarbonate 20 mM pH 7.4/37°C, no NaCl; read-out: MS KD
Description: Non-labeled recombinant hPEBP1 purified as previously described was used for mass spectrometry analysis. To prevent Na^+ adduct formation, the commercial GTP and FMN nucleotides used in native MS were desalted. For this purpose, a protocol derived from the RNA-desalting procedure of Limbach et al. (1995) was set up.
All MS measurements were performed in an ESI-ion trap model Esquire HCT or Ultra HCT PTM Discovery (Bruker, Bremen, Germany), or in a maXis ESI-UHR-Qq-TOF (Bruker). Complexes were formed by incubating hPEBP1 with a range of ligand concentrations in ammonium bicarbonate 20 mM/formic acid buffer, pH 7.4 at 37°C or in ammonium acetate 20 mM, pH 6.6 at 20°C. After incubation, samples were treated with a Zeba micro gel filtration device with a 7 kDa cut-off (Thermo Scientific, Waltham, MA) prior to MS measurement, or analyzed directly in MS. The KD was determined by measuring the bound protein fraction by native MS. Details of the development of the native MS method for KD determination are described in the work of Jaquillard et al. (in press).

[3] = tested on: rPEBP1; design: method as in PMID 20463977; settings: pH 7.4/NaCl 100 mM/30°C, 130 mM GTP for 75 µM rPEBP1; cited from earlier work
[4] = HEPES 10 mM pH 7.5/NaCl 100 mM/30°C (near physiological conditions)

Kd ([1]; HEPES 10 mM pH 7.5/20°C, from CSP data of 9 residues in fast exchange) [µM] | Kd [1, 4] [µM] | Kd ([1]; MES 10 mM pH 6.5/20°C) [µM] | Kd [2] [µM] | Compound | chemical shift perturbations for rPEBP1 [3]
14 ± 11 | 252 ± 84 | 14 ± 9 | 5 ± 4 | Cc1cc2nc3c(=O)[nH]c(=O)nc-3n(C[C@H](O)[C@H](O)[C@H](O)COP(=O)(O)O)c2cc1C [FMN, flavin mononucleotide] | 
 | 3420 ± 1970 | 669 ± 140 | 89 ± 48 | Nc1nc2c(ncn2[C@@H]2O[C@H](COP(=O)(O)OP(=O)(O)OP(=O)(O)O)[C@@H](O)[C@H]2O)c(=O)[nH]1 [GTP, Guanosine triphosphate] | did not cause significant chemical shift perturbations
 | 173 ± 19 |  |  | O=C1N[C@@H](Cc2ccccc2)CO1 [locostatin precursor, (S)-4-benzyl-2-oxazolidinone] | 
